Results taken from paper PMC11277421, “Advancing Cardiovascular Drug Screening Using Human Pluripotent Stem Cell-Derived Cardiomyocytes” (International Journal of Molecular Sciences, 2024).
Entries after “also recorded” stand apart in the source; their conditions may differ.

Tests used:
[1] = system: iPSC-CMs; experiment: Cardiotoxicity test: spontaneous calcium oscillations (FLIPR, EarlyTox dye); details: for EC50: Homo sapiens, iPSC-CM, read-out: EC50 (beating rate, calcium oscillations); for effect on beating rate: iPSC-CMs, concentration-dependent
Experimental: Spontaneous calcium oscillations in iPSC-CMs were measured using the FLIPR system in the absence or presence of test compounds. […] This approach allowed the evaluation of proarrhythmic effects of drug candidates based on calcium dynamics occurring within the iPSC-CMs.
Figure 4 Utilization of hPSC-CMs as a platform for high-throughput testing of the cardiotoxicity and effectiveness of drugs. Spontaneous calcium oscillations in iPSC-CMs were measured using the FLIPR system in the absence or presence of test compounds. (a,b) Cardiotoxicity test. […] (b) Testing of the compounds known for their adverse effects in humans. […] (c,d) Efficacy test. (c) iPSC-CMs (c1) and ESC-CMs (c2) were treated with 200 nM ATX-II, a late inward sodium current inducer, which produces atrial arrhythmias mimicking the LQT3 phenotype, followed by exposure to a test compound. […] Error bars, mean ± SEM (N = 3). Asterisks, *—statistically significant differences (Student’s t-test; p < 0.05).
Spontaneous calcium transients in contracting CMs were monitored using the FLIPR Tetra® High Throughput Cellular Screening System (Molecular Devices). hPSC-CMs were plated on the Matrigel-coated wells (8 × 10^4 cells per well) of a 96-well plate. Confluency was monitored after 2 days, and the strong synchronous contractions of cells were confirmed prior to the cardiac calcium oscillation assay. Experiments were conducted after 7–10 days of cell culture. The EarlyTox^TM Cardiotoxicity Kit (Molecular Devices) was used; a calcium-sensitive fluorescent dye was added to the plate according to the manufacturer’s instructions and incubated for 2 h at 37 °C. […] Calcium oscillations were measured at 20, 40, and 60 min after treatment. The acquired data were analyzed for beat frequency and peak width at 10% amplitude using ScreenWorks Peak Pro software version 2.0 (Molecular Devices).

[2] = system: hPSCs; experiment: Optimization of CHIR99021 concentration for hPSC-CM generation (morphology, cTnT FACS); assay type: cell-based, human; details: tested 0, 6, 9, 12 μM; morphology and cTnT expression on D10
Source text: To optimize the culture conditions for CM generation from hPSCs (iPSCs and ESCs), cells were propagated on Matrigel-coated culture plates with maintenance medium, as described in the Section 4. Subsequently, hPSCs underwent differentiation for 10 days, followed by maturation for another 10 days or longer if needed (Figure 1a). For the initial induction of mesodermal differentiation, CHIR99021, a GSK3 inhibitor and Wnt activator, was used. On the first day of hPSC cm generation, hPSCs were treated with CHIR99021 at various concentrations (0, 6, 9, and 12 μM) (Figure 1b). The optimal concentration of CHIR99021 for the efficient generation of hPSC-CMs was determined to be 9 μM based on their morphology and cTnT expression (Figure 1b). For further differentiation into cardiac progenitor cells, Wnt-C59, a small molecule that inhibits Wnt palmitoylation, was added to the differentiation medium from D2 to D4. For late differentiation into contracting CMs from D6 to D10, insulin was added. Contracting CMs were observed between D9 and D11 (Supplementary Figure S1). During differentiation over 10 days, there were changes in the expression levels of CM-related genes (Figure 1c). […] Moreover, GATA4, NKX2.5, TBX5, and ISL1, transcription factors that play key roles in cardiac development, were highly expressed on D10 compared with D0 or D5, indicating the induction of cardiac lineage cells. […]

[3] = system: iPSC-CMs; experiment: Efficacy test: ATX-II-induced LQT3 phenotype, calcium oscillations in iPSC-CMs; assay type: cell-based, human; details: for average peak width after ATX-II, reversal by test compound: iPSC-CMs pretreated with 200 nM ATX-II
Source text: (§1) (a,b) Cardiotoxicity test. […] (c,d) Efficacy test. […] Error bars, mean ± SEM (N = 3).
(§2) For the efficacy test (Figure 4c), iPSC-CMs and ESC-CMs were generated as previously mentioned and used to screen effective compounds for reversing arrhythmia phenotype.

[4] = system: ESC-CMs; experiment: Efficacy test: ATX-II-induced LQT3 phenotype, calcium oscillations in ESC-CMs; assay type: cell-based, human; details: for average peak width after ATX-II, reversal by test compound: ESC-CMs pretreated with 200 nM ATX-II
Source text: as §1, §2

Molecule | EC50 [1] [µM] | effect on beating rate [1] | further results
COc1ccc([C@@H]2Sc3ccccc3N(CCN(C)C)C(=O)[C@@H]2OC(C)=O)cc1 [diltiazem] | 5.97 | increased the beating rate | 
O=C(NCC1CCCCN1)c1cc(OCC(F)(F)F)ccc1OCC(F)(F)F (centres unmarked) [flecainide] | 17.5 | inhibited the beating rates | 
Cc1c[nH]c(-c2cnc(NCCNc3ccc(C#N)cn3)nc2-c2ccc(Cl)cc2Cl)n1 [CHIR99021] |  |  | optimal concentration for efficient generation of hPSC-CMs [2]: 9 µM
CN(CCOc1ccc(NS(C)(=O)=O)cc1)CCc1ccc(NS(C)(=O)=O)cc1 [dofetilide] | 0.018 | decrease in the beating rate | 
CC(C)c1nc(CN(C)C(=O)N[C@H](C(=O)N[C@@H](Cc2ccccc2)C[C@H](O)[C@H](Cc2ccccc2)NC(=O)OCc2cncs2)C(C)C)cs1 [ritonavir] | 6.09 | inhibited the beating rates | 
CCCN(CCc1cccs1)[C@H]1CCc2c(O)cccc2C1 [rotigotine] |  |  | average peak width after ATX-II, reversal by test compound [3]: restored to the level of untreated control cells; also recorded: significantly reverted the average peak width to the level of untreated control cells; average peak width after ATX-II, reversal by test compound [4]: restored to the level of untreated control cells; also recorded: significantly reverted the average peak width to the level of untreated control cells
COc1ccc(CCN(C)CCCC(C#N)(c2ccc(OC)c(OC)c2)C(C)C)cc1OC (centres unmarked) [verapamil] | 0.522 | increased the beating rate | 
ATX-II: late inward sodium current inducer known to produce atrial arrhythmias, mimicking LQT3 |  |  | average peak width (effect of ATX-II itself) ([3]; 200 nM, iPSC-CMs): higher average peak widths; average peak width (effect of ATX-II itself) ([4]; 200 nM, ESC-CMs): higher average peak widths
CCCN1CCCC[C@H]1C(=O)Nc1c(C)cccc1C [ropivacaine] |  |  | average peak width after ATX-II, reversal by test compound [3]: restored to the level of untreated control cells; also recorded: significantly reverted the average peak width to the level of untreated control cells; average peak width after ATX-II, reversal by test compound [4]: restored to the level of untreated control cells; also recorded: significantly reverted the average peak width to the level of untreated control cells
